In a melting point compilation (Tetko et al.; mined from patent text by program, amines drawn as free bases though some values may be those of a salt) one finds melting point data, which are given here for 93 molecules.

`CCOC(=O)N1CCN(c2nc3cccccc-3n2)CC1` came in with a melting point of 136 to 138 °C.

As to `CC1(O)CCC(CN2CCC(=C3c4ccc(F)cc4Sc4ccc(C(F)(F)F)cc43)CC2)CC1` (stereo not drawn), the melting point fell in the range of 80 to 90 °C. In the case of `CCOc1ccc(-c2cncn2-c2ccc(S(=O)(=O)NC(C)(C)C)cc2)cc1`, the melting point turned out to be 215 °C. As for `COCC(C)Oc1cc(Oc2ccc(S(C)(=O)=O)nc2)cc2cc(C3=NCC(CCO)S3)[nH]c12` (stereo not drawn), the melting point lay in the range of 138 to 139 °C. The figure for `CCCCc1nc(SC)c(C(=O)O)n1Cc1ccc(-c2ccccc2S(=O)(=O)NC(=O)NCCC)cc1` is 109 to 111 °C; for `CCOP(=O)(OCC)c1nc(NC(C)C)nc(NC(C)C)n1` it is 91 to 94 °C; for `CCCCOC1(N)C=CC(NC(=O)CBr)=CC1` (stereo not drawn) it is 131 to 134 °C. The molecule `NC(=O)NC1CCC(Cl)CC1` (stereo not drawn) registered a melting point of 177 to 178 °C. In the case of `CN(C(=N)Nc1cccc2ccccc12)c1cccc2ccccc12` it was 249 to 250 °C.

On to `O=C(Cl)N1c2ccccc2C=Cc2ccccc21`, for which the melting point was in the range of 145 to 150 °C. Consider `COc1ccc2c(c1)nnc1c(C)nc(-c3cc(Cl)ccc3Cl)n12`, for which the melting point fell in the range of 144 to 147 °C. With `CC(C)(C)OC(=O)NC(C(=O)O)C1(O)CCSC1` (stereo not drawn), the melting point was 116 to 118 °C. `CCSc1ccc(-c2c(Cl)ncn2-c2ccc(S(C)(=O)=O)cc2)cc1` showed a melting point of 181 to 185 °C.

In the case of `O=Cc1ccc(-c2nn(Cc3ccccc3)c3ccccc23)o1`, the melting point amounted to 108 °C. `CCOC(OCC)c1nc2sc(C)c(C)n2c(=O)c1C` displayed a melting point of 84 to 85 °C. `CCOC(=O)CCCC(=O)c1ccc(Br)s1` returned a melting point of 53 to 54 °C.

Turning to `Cc1cc(=O)oc2cc(N(C)C(=O)C(=O)O)ccc12`, the melting point fell in the range of 162 to 164 °C. In the case of `COc1ccc2c(c1O)CCN(C=O)C2`, the melting point was 172 to 174 °C.

For `Cc1ccc(S(=O)(=O)OCCC2(OC3CCCCO3)CC2)cc1` (stereo not drawn), the melting point lay within 56 to 57 °C. `COc1ccccc1Oc1c(Cl)ncnc1NS(=O)(=O)c1ccc(C(C)(C)C)cc1` showed a melting point of 152 °C.

Regarding `CCOC(=O)C(CCc1ccccc1)(NC(C)=O)C(=O)OCC`, the melting point fell in the range of 115 to 117 °C. In turn, `CC(C)n1cc(-c2ncc(N)nc2-c2ccc(F)cc2)ccc1=O` showed a melting point of 258 °C.

In turn, `Cn1c(=O)oc2cc(C(=O)CCN3CCN(c4ccc(F)cc4)CC3)ccc21` gave a melting point of 149 °C.

For the molecule `COc1nc(C)c(C(C)=O)cc1NC(=S)N1CCN(c2cccc(O)c2)CC1`, the melting point lay in the range of 114 to 115 °C. `O=C(O)[C@H](Cc1ccc(-c2ccccc2)cc1)NCP(=O)(Oc1ccccc1)Oc1ccccc1` displayed a melting point of 118 to 119 °C. `CC(=O)Nc1cc(Cl)c(C(C#N)c2ccc(Cl)c(C(F)(F)F)c2)c(Cl)c1` (stereo not drawn) came in with a melting point of 172 °C.

In turn, `COc1ccc(N2c3ccccc3Sc3ccccc32)cc1` came in with a melting point of 173 to 176 °C. Take `CC(=O)N(N=Cc1c(Cl)cccc1Cl)c1nncn1N(C(C)=O)C(C)=O`: the melting point was 140 to 150 °C.

`COc1ccc(-c2csc(Nc3ccccc3)n2)cc1OC` gave a melting point of 170 to 174 °C.

For the molecule `COc1cccc(CCc2c(CC(=O)NC(C)C)ccc(OC)c2OC)c1`, the melting point is 138 to 140 °C. In the case of `Cc1cc(=O)c(-c2ccc(F)cc2)c(C)[nH]1` it was greater than 250 °C; in that of `O=CNNc1ccc(NC(=S)N2CCCCC2)cc1`, 174 to 176 °C; in that of `OC(CNC1CCc2ccccc2C1)COc1cccc2[nH]ccc12` (stereo not drawn), 65 to 68 °C.

`CC(C)c1cnc(NC(=O)Cc2csc(NC(=O)CN(C)C)n2)s1` yielded a melting point of 70 to 71 °C. `CN(C)S(=O)(=O)Oc1ccc(-c2ccccc2)cc1` had a melting point of 105 to 107 °C. Molecule `Cn1cc(Cc2ccccc2)c(=O)c(-c2cccc(C(F)(F)F)c2)c1` had a melting point of 98 to 100 °C.

The molecule `CCCCOc1ncc(C(C)=O)cc1-c1nn2c(CC)nc(CCC)c2c(=O)[nH]1` had a melting point of 155 to 156 °C. For `CS(=O)(=O)NCCn1c(=O)[nH]c2ccccc21`, the melting point lay in the range of 162 to 170 °C.

In turn, `CN(Cc1cnn(C)c1)c1ccc(Br)cc1C=O` displayed a melting point of 80 to 81 °C. In the case of `COCc1c[nH]c2c([N+](=O)[O-])cccc2c1=O` it was greater than 250 °C; in that of `O=C(CCc1ccccc1)C(Cc1ccccc1)C(=O)CCc1ccccc1`, 74 to 75 °C; in that of `CCOC(=O)CN1C(=O)COc2cc([N+](=O)[O-])ccc21`, 120 to 122 °C. `CNC(=O)CCCCSc1nccc(NC(N)=NCC(F)(F)F)n1` returned a melting point of 148 to 150 °C.

Regarding `O=C1c2ccccc2C(=O)N1CCc1cccc(C(F)(F)F)c1`, the melting point was 69 to 71 °C.

The molecule `COC(=O)c1cc2c(nc1Cl)CCCCC2` yielded a melting point of 148 to 149 °C. As for `CCCCNC(=S)Nc1onc2c1CCC2`, the melting point is 93 °C.

Molecule `N#Cc1cccc2c1NC(=O)C2c1ncnc2nn(C3CCCC3)cc12` (stereo not drawn) displayed a melting point greater than 380 °C. In turn, `COC(=O)c1ncccc1SCc1ccc(OC)cc1` gave a melting point of 99 to 100 °C. `CCCOc1ccccc1-c1nc(C=NNC(=O)OCC)c[nH]1` gave a melting point of 129 to 132 °C. The figure for `Cc1c(Cc2cccnc2)oc2ccc(C(=O)O)cc12` is 219 to 221 °C; for `C=C(c1ccc(C(=O)O)s1)c1cc2cc(C(F)(F)F)ccc2n1S(=O)(=O)c1cccc(C(C)(C)C)c1` it is 195 °C.

In turn, `CN1Cc2c(-c3noc(CCl)n3)ncn2-c2cccc(F)c2C1=O` gave a melting point of 206 °C. The figure for `CN1CCC(O)(Cc2ccccc2F)CC1` is 93 to 95 °C. Turning to `COCc1ccc2sc(C(=O)OC)c(C)c2c1`, the melting point fell in the range of 88 to 89 °C. On to `CCCc1nc2c(N)nc3cc(OCc4ccc(C(F)(F)F)cc4)ccc3c2n1CC(C)C`, for which the melting point lay within 192 to 194 °C. For the molecule `CCOc1ccccc1O[C@@H](c1ccccc1)[C@@H](CO)OS(C)(=O)=O` (racemic), the melting point lay in the range of 83 to 86 °C.

In the case of `O=C1Cc2ccc(N3C(=O)C4=C(CCCC4)C3=O)cc2N1`, the melting point lay in the range of 225 to 226 °C.

With `COc1ccc2c(c1)c(Cc1nc(-c3ccc([N+](=O)[O-])cc3)cs1)c(C)n2Cc1ccc(Br)cc1`, the melting point was in the range of 205 to 207 °C.

For `CCOC(=O)c1cc(OCc2ccccc2)c2nc(C)c(C)n2c1`, the melting point lay within 140 to 141 °C. Regarding `O=C(O)c1c[nH]c(Sc2cccc(Cl)c2)c1`, the melting point fell in the range of 134 to 137 °C. As for `CCCCCS(=O)(=O)NC(=O)/C=C/c1ccc(OCCOC)cc1Cc1ncc(Br)s1`, the melting point fell in the range of 88.5 to 89.1 °C. For `Cc1c(Cl)ccc2c1N=C(c1ccncc1)OC2c1ccc(Br)cc1` (stereo not drawn), the melting point was in the range of 169 to 170 °C.

`COc1ccc(N2CCN(c3c(C)c(C)c4c(c3C)CC3(CCOCC3)O4)CC2)cc1` registered a melting point of 153 to 155 °C. With `Nc1nc(-c2ccc3c(c2)OCCO3)c(-c2ccccn2)s1`, the melting point was 214 °C. The figure for `OCc1cc(I)cc(I)c1` is 136 to 140 °C; for `CCCCCC(=O)CCCCc1ccc(O)c(O)c1` it is 76 to 78 °C; for `O=C1NN=C(CCc2ccccc2)c2c[nH]c3cccc1c23` it is 182 to 184 °C. As to `Cn1c(COc2ccc(CC3SC(=O)NC3=O)cc2)nc2ccc(Oc3ccc4cccc(NC(=O)Nc5ccc(F)cc5F)c4c3)cc21` (stereo not drawn), the melting point is 222 to 224 °C. In the case of `Cc1ccc(CSC[C@H](NC(=O)C(CS)Cc2ccc(-c3ccccc3)cc2)C(=O)O)cc1` (stereo partly drawn) it was 131 to 135 °C; in that of `COc1ccc([N+](=O)[O-])c(C(=O)O)c1OC`, 187 to 189 °C. Turning to `CCNC(=O)Nc1nc2cc(-c3cnc(N(C)C)nc3)cc(C(=O)NCC)n2n1`, the melting point was 328 to 334 °C. `CN(c1ncccc1[N+](=O)[O-])C1CCNCC1` displayed a melting point of 116 to 117 °C. Take `Cn1c(-c2cccs2)nnc1S(C)=O` (stereo not drawn): the melting point is 105 to 107 °C. With `Nc1cc(I)ccc1Nc1cccc(-n2cccn2)c1`, the melting point lay in the range of 134 to 135 °C.

As for `CC1OC(=O)C2C1C1CCC2(OC(=O)C(C)(C)C)O1` (stereo not drawn), the melting point lay in the range of 114 to 115 °C. `Cc1c(CC(=O)O)c2ccccc2c(=O)n1O` returned a melting point of 198 to 200 °C. In the case of `CC(=O)Oc1ccc(Cl)c2c(=O)c3ccccc3sc12` it was 141 to 142 °C. `CCNC(=O)c1c(Cl)cccc1[Si](C)(C)C(C)(C)C` showed a melting point of 140 to 142 °C. Turning to `CC(C)(CC(F)(F)F)NC(=N)NC#N`, the melting point is 153 °C. In the case of `N#CC(C=N)CC(=O)c1ccccc1` (stereo not drawn) it was 89 to 90 °C; in that of `COc1cc(-c2cnc3[nH]cc(C(=O)C4(C)CCCCC4)c3n2)cc(OC)c1OC`, 246 to 247 °C. For `Cc1cn(C2CCCCC2)c(=O)nc1NS(=O)(=O)c1ccc(N)cc1`, the melting point is 203 to 206 °C.

The molecule `O=c1cccc2nccncc1-2` had a melting point of 145 to 147 °C. Take `CN1C(=S)C(CCC(=O)O)c2ccccc21` (stereo not drawn): the melting point lay in the range of 126 to 128 °C. Consider `O=C1CCCCC1C(C[N+](=O)[O-])c1ccccc1Cl` (racemic), for which the melting point fell in the range of 107 to 108 °C.

`CC1(c2cccc(NS(C)(=O)=O)c2)C2CN(C(=O)CCc3cccs3)CC21` (stereo not drawn) showed a melting point of 184 °C. `CN(C)C=C(C#N)C(=O)c1cccc(Oc2ccccc2)c1` registered a melting point of 80 to 82 °C. In the case of `CS(=O)(=O)c1ccc(C2=C(c3ccccc3)C(=NO)C2)cc1` it was 146 to 148 °C; in that of `CC(C)(C)Oc1ccc(OC(=O)N2CCOCC2)cc1`, 129 to 130 °C. Consider `O=C(Cc1ccccc1)c1ccc(C(F)(F)F)cc1`, for which the melting point lay within 127 to 128 °C. In the case of `OCCn1nc(-c2ccc(F)cc2)c(-c2ccncc2)c1C1CC1` it was 155 to 157 °C. In the case of `Cc1cc(C(=NO)c2cccs2)cc(C)c1OCC(=O)O` it was 152 °C. As for `COc1cc(C)cc(NC(=O)c2nnnn2Cc2ccccc2)c1OCc1ccccc1`, the melting point was in the range of 181 to 183 °C.

The term melting point denotes the temperature, or range, at which the solid turns liquid.
